Columns and labels:
LAPC4 cells [1] = assay: Cell growth / viability (Trypan Blue exclusion) of LAPC4 cells; type: cell-based, human
Description: (§1) To interrogate the differential sensitivity to docetaxel of prostate cancer cells, two prostate cancer cell lines, LNCaP and LAPC4, were compared.
(§2) LNCaP-Abl cell line was provided by Zoran Culig (Innsbruck Medical University). LNCaP-C42 cell line was obtained from ViroMed Laboratories (Minneapolis). LNCaP-104R2 cell line was provided by Shutsung Liao (University of Chicago), and LAPC-4 cell line was provided by Charles Sawyers (Memorial Sloan Kettering Cancer Center). These cells were maintained with 10% fetal bovine serum (FBS) (LNCaP, LNCaP-C42, LMCaP-AI, VCAP, 22RV1, LAPC4, PC3, and DU145) or 10% charcoal-stripped serum (CSS) (LNCaP-Abl, and LNCaP-104R2) at 37 c in 5% CO2.

LNCaP cells = assay: Cell growth / viability (Trypan Blue exclusion) of LNCaP cells; type: cell-based, human
Description: as §1, §2

[2] = test system: metastatic castration-resistant prostate cancer (mCRPC); settings: first-line; cited from earlier work
[3] = test system: metastatic hormone sensitive prostate cancer (mHSPC); settings: docetaxel given at the time of starting ADT for mHSPC; cited from earlier work
[4] = test system: docetaxel-resistant prostate cancer; settings: docetaxel-resistant patients; cited from earlier work
LAPC4 cells [5] = settings: LAPC4, upon docetaxel treatment
Description: as §1

CNC(=O)c1ccc(N2C(=S)N(c3ccc(C#N)c(C(F)(F)F)c3)C(=O)C2(C)C)cc1F [enzalutamide]
effect on viability of cells treated with docetaxel in DHT supplemented media (LAPC4 cells [1]; LAPC4): substantially reduced | effect on docetaxel sensitivity in the presence of DHT (LAPC4 cells [1]; LAPC4, 10 nM docetaxel, DHT): resensitized the cells to docetaxel

CC(=O)O[C@@]12CO[C@@H]1C[C@H](O)[C@@]1(C)C(=O)[C@H](O)C3=C(C)[C@@H](OC(=O)[C@H](O)[C@@H](NC(=O)OC(C)(C)C)c4ccccc4)C[C@@](O)([C@@H](OC(=O)c4ccccc4)[C@H]21)C3(C)C [docetaxel]
IC20 (LNCaP cells; Homo sapiens, LNCaP cells, growth, read-out: IC20 concentration): 0.5 nM | sensitivity of cells to docetaxel (LNCaP cells; LNCaP, 10 nM docetaxel, absence of DHT): sensitive | prolongation of median overall survival (OS) over mitoxantrone [2]: ~2 month | OS [3]: 57 months | improvement of OS [3]: 13 months | IC20 (LAPC4 cells [1]; Homo sapiens, LAPC4 cells, growth, read-out: IC20 concentration): 5 nM | sensitivity of cells to docetaxel (LAPC4 cells [1]; LAPC4, 10 nM docetaxel, absence of DHT): sensitive

O=C1c2c(O)ccc(O)c2C(=O)c2c(NCCNCCO)ccc(NCCNCCO)c21 [mitoxantrone]
median OS [4]: 12.7 months

C[C@]12CCC(=O)C[C@@H]1CC[C@@H]1[C@@H]2CC[C@]2(C)[C@@H](O)CC[C@@H]12 [DHT, dihydro-testosterone]
effect of DHT on viability against docetaxel (LNCaP cells; LNCaP, 0.01 nM to 0.1 mM docetaxel, Trypan Blue exclusion): not significantly affected | effect of DHT on PARP cleavage (LAPC4 cells [5]): specifically reduced | impact of DHT treatment on docetaxel sensitivity (LAPC4 cells [1]; LAPC4): dose-dependent | effect of DHT on viability in docetaxel (LAPC4 cells [1]; LAPC4, 0.01 nM to 0.1 mM docetaxel, Trypan Blue exclusion): markedly increased | effect of 10 nM DHT on cell growth in the presence of docetaxel (LAPC4 cells [1]; LAPC4, 10 nM docetaxel): restoration of cell growth

CO[C@H]1C(=O)[C@]2(C)[C@@H](OC)C[C@H]3OC[C@@]3(OC(C)=O)[C@H]2[C@H](OC(=O)c2ccccc2)[C@]2(O)C[C@H](OC(=O)[C@H](O)[C@@H](NC(=O)OC(C)(C)C)c3ccccc3)C(C)=C1C2(C)C [cabazitaxel]
improvement of median OS over mitoxantrone [4]: 2.4 months | median OS [4]: 15.1 months
